Laboratory results taken from ChEMBL document CHEMBL1158141, “A sorbicillinoid urea from an intertidal Paecilomyces marquandii” (2006).

Tests used:
Bacillus subtilis = assay: Antibiotic activity against Bacillus subtilis ATCC 6633 by agar diffusion method; type: functional
Escherichia coli = assay: Antibiotic activity against Escherichia coli ATCC 25922 by agar diffusion method; type: functional

| Compound | inhibition zone (IZ) (Bacillus subtilis) | inhibition zone (IZ) (Escherichia coli) |
| --- | --- | --- |
| CC(C)[C@@H]1NC(=O)[C@H](Cc2ccccc2)NC1=O | 9 mm | 8 mm |
| CC(C)C[C@@H]1NC(=O)[C@H](Cc2ccccc2)NC1=O | 10 mm | 8 mm |
